Assay results as given in patent US10968217B2, “Tetrahydropyridopyrimidines for the treatment and prophylaxis of hepatitis B virus infection” (Hoffmann-La Roche Inc., priority 2016, dated 2021).

Test system: HBsAg
Assay: HBsAg assay (CLIA of secreted HBsAg in HepG2.2.15 culture supernatant)
Type: cell-based, HBV
Conditions: Hepatitis B virus, HepG2.2.15, read-out: IC50 (HBsAg assay)
Protocol: HepG2.2.15 cells (Acs et al. Proc Natl Acad Sci USA, 84, (1987), 4641-4), a constitutively HBV-expressing cell line were cultured in DMEM+Glutamax-I medium (Invitrogen, Carlsbad, Calif., USA), supplemented with 10% fetal bovine serum (Invitrogen) and G418 (Invitrogen) at a final concentration of 200 mg/L and maintained in 5% CO2 at 37° C.
HepG2.2.15 cells were seeded in duplicate into white, 96-well plates at 1.5×10^4 cells/well. The cells were treated with a three-fold serial dilution series of the compounds in DMSO. The final DMSO concentration in all wells was 1% and DMSO was used as no drug control.
The HBsAg chemiluminescence immunoassay (CLIA) kit (Autobio Diagnostics Co., Zhengzhou, China, Catalog number: CL0310-2) was used to measure the levels of secreted HBV antigens semi-quantitatively. For the detection 50 μL/well culture supernatant was used and HBsAg was quantified using HBsAg chemiluminescence immunoassay (CLIA) kit (Autobio Diagnostics Co., Zhengzhou, China, Catalog number: CL0310-2), 50 μL of the supernatant was transferred to the CLIA assay plate and 50 μL of enzyme conjugate reagent was added into each well. The plates were sealed and gently agitated for 1 hour at room temperature. The supernatant-enzyme-mixture was discarded and wells were washed 6 times with 300 μL of PBS. The residual liquid was removed by plating the CLIA plate right side down on absorbent tissue paper. 25 μL of substrates A and B were added to each well. Luminance was measured using a luminometer (Mithras LB 940 Multimode Microplate Reader) after 10 minutes incubation. Dose-response curves were generated and the IC50 value was extrapolated by using the E-WorkBook Suite (ID Business Solutions Ltd., Guildford, UK). The IC50 was defined as the compound concentration at which HBsAg secretion was reduced by 50% compared to the no drug control.

SMILES | IC50 [µM]
Cc1ccc(C(=O)N2CCc3nc(-c4ccccn4)ncc3C2)nc1 [Example 27, (5-Methyl-2-pyridyl)-[2-(2-pyridyl)-7,8-dihydro-5H-pyrido[4,3-d]pyrimidin-6-yl]methanone] | 24.2
CC1c2cnc(-c3ccccn3)nc2CCN1C(=O)c1ccc2cc[nH]c2c1 (centres unmarked) [Example 46, 1H-ndol-6-yl-[5-methyl-2-(2-pyridyl)-7,8-dihydro-5H-pyrido[4,3-d]pyrimidin-6-yl]methanone] | 2.08
COc1cc(OC)cc(C(=O)N2CCc3nc(-c4ccccn4)ncc3C2)c1 [Example 19, (3,5-Dimethoxyphenyl)-[2-(2-pyridyl)-7,8-dihydro-5H-pyrido[4,3-d]pyrimidin-6-yl]methanone] | 8.99
O=C(c1cccc(C(F)(F)F)c1)N1CCc2nc(-c3ccccn3)ncc2C1 [Example 6, [2-(2-Pyridyl)-7,8-dihydro-5H-pyrido[4,3-d]pyrimidin-6-yl]-[3-(trifluoromethyl)phenyl]methanone] | 18.7
CCOc1cc(OCC)cc(C(=O)N2CCc3nc(-c4ccccn4)ncc3C2)c1 [Example 17, (3,5-Diethoxyphenyl)-[2-(2-pyridyl)-7,8-dihydro-5H-pyrido[4,3-d]pyrimidin-6-yl]methanone] | 7.66
CC1c2cnc(-c3ccccn3)nc2CCN1C(=O)c1ncco1 (centres unmarked) [Example 60, [5-Methyl-2-(2-pyridyl)-7,8-dihydro-5H-pyrido[4,3-d]pyrimidin-6-yl]-oxazol-2-yl-methanone] | 2.61
COc1ccc(C(=O)N2CCc3nc(-c4ccccn4)ncc3C2)cc1 [Example 39, (4-Methoxyphenyl)-[2-(2-pyridyl)-7,8-dihydro-5H-pyrido[4,3-d]pyrimidin-6-yl]methanone] | 10.6
CC1c2cnc(-c3ccccn3)nc2CCN1C(=O)c1ccc(Cl)s1 (centres unmarked) [Example 42, (5-Chloro-2-thienyl)-[5-methyl-2-(2-pyridyl)-7,8-dihydro-5H-pyrido[4,3-d]pyrimidin-6-yl]methanone] | 0.258
CC1c2cnc(-c3ccccn3)nc2CCN1C(=O)c1ncc[nH]1 (centres unmarked) [Example 56, 1H-Imidazol-2-yl-[5-methyl-2-(2-pyridyl)-7,8-dihydro-5H-pyrido[4,3-d]pyrimidin-6-yl]methanone] | 1.08
Cc1cc(C(=O)N2CCc3nc(-c4ccccn4)ncc3C2)ccc1F [Example 20, (4-Fluoro-3-methyl-phenyl)-[2-(2-pyridyl)-7,8-dihydro-5H-pyrido[4,3-d]pyrimidin-6-yl]methanone] | 7.85
COCCCOc1ccc(C(=O)N2CCc3nc(-c4ncccn4)ncc3C2C)cc1Cl (centres unmarked) [Example 40, [3-Chloro-4-(3-methoxypropoxy)phenyl]-(5-methyl-2-pyrimidin-2-yl-7,8-dihydro-5H-pyrido[4,3-d]pyrimidin-6-yl)methanone] | 1.93
O=C(c1ccc(F)cc1)N1CCc2nc(-c3ccccn3)ncc2C1 [Example 8, (4-Fluorophenyl)-[2-(2-pyridyl)-7,8-dihydro-5H-pyrido[4,3-d]pyrimidin-6-yl]methanone] | 16.4
O=C(c1ccc(F)c(O)c1)N1CCc2nc(-c3ccccn3)ncc2C1 [Example 11, (4-Fluoro-3-hydroxy-phenyl)-[2-(2-pyridyl)-7,8-dihydro-5H-pyrido[4,3-d]pyrimidin-6-yl]methanone] | 21
N#Cc1ccc(C(=O)N2CCc3nc(-c4ccccn4)ncc3C2)cc1 [Example 2, 4-[2-(2-Pyridyl)-7,8-dihydro-5H-pyrido[4,3-d]pyrimidine-6-carbonyl]benzonitrile] | 17
CC1c2cnc(-c3ccccn3)nc2CCN1C(=O)c1nccn1C (centres unmarked) [Example 57, (1-Methylimidazol-2-yl)-[5-methyl-2-(2-pyridyl)-7,8-dihydro-5H-pyrido[4,3-d]pyrimidin-6-yl]methanone] | 3.23
COc1ccc(C(=O)N2CCc3nc(-c4ccccn4)ncc3C2)cc1OC [Example 22, (3,4-Dimethoxyphenyl)-[2-(2-pyridyl)-7,8-dihydro-5H-pyrido[4,3-d]pyrimidin-6-yl]methanone] | 28
COc1ccc(C(=O)N2CCc3nc(-c4ccccn4)ncc3C2C)cc1OC (single isomer, unassigned; (-)) [Example 34, (−)-(3,4-Dimethoxyphenyl)-[5-methyl-2-(2-pyridyl)-7,8-dihydro-5H-pyrido[4,3-d]pyrimidin-6-yl]methanone] | 1.81
Cc1cnc(C(=O)N2CCc3nc(-c4ccccn4)ncc3C2C)s1 (centres unmarked) [Example 55, [5-Methyl-2-(2-pyridyl)-7,8-dihydro-5H-pyrido[4,3-d]pyrimidin-6-yl]-(5-methylthiazol-2-yl)methanone] | 0.223
COc1cc(C(=O)N2CCc3nc(-c4ccccn4)ncc3C2)ccc1O [Example 25, (4-Hydroxy-3-methoxy-phenyl)-[2-(2-pyridyl)-7,8-dihydro-5H-pyrido[4,3-d]pyrimidin-6-yl]methanone] | 34.3
O=C(c1ccc(O)c(F)c1)N1CCc2nc(-c3ccccn3)ncc2C1 [Example 12, (3-Fluoro-4-hydroxy-phenyl)-[2-(2-pyridyl)-7,8-dihydro-5H-pyrido[4,3-d]pyrimidin-6-yl]methanone] | 21.4
O=C(c1ccc(C(F)(F)F)cc1)N1CCc2nc(-c3ccccn3)ncc2C1 [Example 1, [2-(2-Pyridyl)-7,8-dihydro-5H-pyrido[4,3-d]pyrimidin-6-yl]-[4-(trifluoromethyl)phenyl]methanone] | 15.7
O=C(c1ccc(Cl)cc1)N1CCc2nc(-c3ccccn3)ncc2C1 [Example 5, (4-Chlorophenyl)-[2-(2-pyridyl)-7,8-dihydro-5H-pyrido[4,3-d]pyrimidin-6-yl]methanone] | 11.4
COCCCOc1ccc(C(=O)N2CCc3nc(-c4ccccn4)ncc3C2)cc1OC [Example 26, [3-Methoxy-4-(3-methoxypropoxy)phenyl]-[2-(2-pyridyl)-7,8-dihydro-5H-pyrido[4,3-d]pyrimidin-6-yl]methanone] | 3.18
Cc1ccsc1C(=O)N1CCc2nc(-c3ccccn3)ncc2C1C (centres unmarked) [Example 50, [5-Methyl-2-(2-pyridyl)-7,8-dihydro-5H-pyrido[4,3-d]pyrimidin-6-yl]-(3-methyl-2-thienyl)methanone] | 27.7
Cc1ncoc1C(=O)N1CCc2nc(-c3ccccn3)ncc2C1C (centres unmarked) [Example 45, (4-Methyloxazol-5-yl)-[5-methyl-2-(2-pyridyl)-7,8-dihydro-5H-pyrido[4,3-d]pyrimidin-6-yl]methanone] | 1.43
COc1ccc(C(=O)N2CCc3nc(-c4ccccn4)ncc3C2)cn1 [Example 36, (6-Methoxy-3-pyridyl)-[2-(2-pyridyl)-7,8-dihydro-5H-pyrido[4,3-d]pyrimidin-6-yl]methanone] | 3.97
CC1c2cnc(-c3ncccn3)nc2CCN1C(=O)c1n[nH]c2ccccc12 (centres unmarked) [Example 63, 1H-indazol-3-yl-(5-methyl-2-pyrimidin-2-yl-7,8-dihydro-5H-pyrido[4,3-d]pyrimidin-6-yl)methanone] | 0.45
CC1c2cnc(-c3ccccn3)nc2CCN1C(=O)c1ccc2[nH]ncc2c1 (centres unmarked) [Example 47, 1H-indazol-5-yl-[5-methyl-2-(2-pyridyl)-7,8-dihydro-5H-pyrido[4,3-d]pyrimidin-6-yl]methanone] | 2.47
COc1ccc2[nH]nc(C(=O)N3CCc4nc(-c5ncccn5)ncc4C3C)c2c1 (centres unmarked) [Example 66, (5-Methoxy-1H-indazol-3-yl)-(5-methyl-2-pyrimidin-2-yl-7,8-dihydro-5H-pyrido[4,3-d]pyrimidin-6-yl)methanone] | 1.36
